Compound in one experiment: O=[As]([O-])(O)O.[K+] [potassium arsenate]
The experiment is described as follows: thermal stability z-score vs DMSO; higher = more thermally stabilized by treatment. To be noted: HeLa; arsenate concentration 1 mM. As for the experimental part: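 Cellular thermal proteome profiling in HeLa cells treated with 1 mM arsenate for 1 h (DMSO pretreatment), heated to ten temperatures (37-66.3 °C). Soluble protein was quantified by TMT mass spectrometry relative to DMSO controls; the thermal stability score was transformed to a z-score; mean of n = 3 experiments.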

Compound in a further experiment: NC(=O)CCCCC1CCSS1 [lipoamide]
The description is as above. Particulars: HeLa, lipoamide concentration 100 µM. As for the experimental part: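 Cellular thermal proteome profiling in HeLa cells. Cells were treated with 100 µM lipoamide for 1 h, with or without 1 mM arsenate for a further 1 h, then heated to ten temperatures (37-66.3 °C), and soluble protein was quantified by TMT mass spectrometry relative to 0.1% DMSO controls. The thermal stability score (sum of log2 fold changes minus the abundance score) was transformed to a z-score; mean of n = 3 experiments.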

[1] abbreviates: arsenate co-treatment: 1 mM arsenate 1 h.
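Also: each temperature applied for 3 min, abundance score taken as mean log2 fold change at the two lowest temperatures, z-score obtained by mean subtraction and division by SD.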

UniProt Q14703, sequence (Q14703 whole entry): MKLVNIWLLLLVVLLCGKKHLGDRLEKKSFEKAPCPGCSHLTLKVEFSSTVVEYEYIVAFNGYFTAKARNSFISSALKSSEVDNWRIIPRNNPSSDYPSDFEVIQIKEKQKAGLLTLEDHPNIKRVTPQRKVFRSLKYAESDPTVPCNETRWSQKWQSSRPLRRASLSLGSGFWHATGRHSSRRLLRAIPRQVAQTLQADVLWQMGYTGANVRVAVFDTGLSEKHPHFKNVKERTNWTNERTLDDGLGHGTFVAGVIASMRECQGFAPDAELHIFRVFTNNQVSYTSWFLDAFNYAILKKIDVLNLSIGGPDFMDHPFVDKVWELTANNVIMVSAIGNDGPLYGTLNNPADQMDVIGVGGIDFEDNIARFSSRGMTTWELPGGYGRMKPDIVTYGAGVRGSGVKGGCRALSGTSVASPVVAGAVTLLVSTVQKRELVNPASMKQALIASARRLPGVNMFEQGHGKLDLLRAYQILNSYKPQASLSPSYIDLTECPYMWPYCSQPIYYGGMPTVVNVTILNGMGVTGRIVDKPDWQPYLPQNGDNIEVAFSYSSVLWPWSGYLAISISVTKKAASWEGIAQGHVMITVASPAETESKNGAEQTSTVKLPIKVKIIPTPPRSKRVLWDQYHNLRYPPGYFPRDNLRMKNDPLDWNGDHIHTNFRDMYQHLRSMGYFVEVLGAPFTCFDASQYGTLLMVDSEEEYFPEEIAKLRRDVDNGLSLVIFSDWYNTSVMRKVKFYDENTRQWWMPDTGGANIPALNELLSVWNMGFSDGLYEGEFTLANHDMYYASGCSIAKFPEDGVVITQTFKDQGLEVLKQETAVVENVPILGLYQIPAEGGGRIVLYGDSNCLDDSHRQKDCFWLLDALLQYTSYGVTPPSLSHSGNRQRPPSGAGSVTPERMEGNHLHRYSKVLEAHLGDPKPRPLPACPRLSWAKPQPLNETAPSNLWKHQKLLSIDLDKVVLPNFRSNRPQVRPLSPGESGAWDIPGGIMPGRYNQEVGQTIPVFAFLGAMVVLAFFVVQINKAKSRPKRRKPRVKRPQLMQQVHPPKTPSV
UniProt Q9H9A6, sequence (Q9H9A6 whole entry): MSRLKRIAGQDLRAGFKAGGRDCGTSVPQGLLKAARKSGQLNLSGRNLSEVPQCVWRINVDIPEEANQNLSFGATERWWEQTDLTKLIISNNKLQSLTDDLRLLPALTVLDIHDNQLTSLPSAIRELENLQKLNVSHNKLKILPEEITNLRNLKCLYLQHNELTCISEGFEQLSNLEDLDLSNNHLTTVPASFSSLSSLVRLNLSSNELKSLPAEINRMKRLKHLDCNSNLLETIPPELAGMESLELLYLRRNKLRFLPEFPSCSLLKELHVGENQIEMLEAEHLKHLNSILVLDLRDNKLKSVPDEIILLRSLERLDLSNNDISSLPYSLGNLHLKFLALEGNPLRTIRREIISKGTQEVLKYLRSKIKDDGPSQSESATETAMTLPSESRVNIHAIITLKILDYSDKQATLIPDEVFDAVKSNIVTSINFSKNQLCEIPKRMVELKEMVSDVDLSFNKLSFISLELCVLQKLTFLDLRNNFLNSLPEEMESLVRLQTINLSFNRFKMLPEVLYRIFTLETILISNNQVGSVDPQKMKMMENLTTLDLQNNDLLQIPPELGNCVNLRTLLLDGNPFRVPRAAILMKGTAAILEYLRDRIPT
UniProt Q13057, sequence (Q13057 whole entry): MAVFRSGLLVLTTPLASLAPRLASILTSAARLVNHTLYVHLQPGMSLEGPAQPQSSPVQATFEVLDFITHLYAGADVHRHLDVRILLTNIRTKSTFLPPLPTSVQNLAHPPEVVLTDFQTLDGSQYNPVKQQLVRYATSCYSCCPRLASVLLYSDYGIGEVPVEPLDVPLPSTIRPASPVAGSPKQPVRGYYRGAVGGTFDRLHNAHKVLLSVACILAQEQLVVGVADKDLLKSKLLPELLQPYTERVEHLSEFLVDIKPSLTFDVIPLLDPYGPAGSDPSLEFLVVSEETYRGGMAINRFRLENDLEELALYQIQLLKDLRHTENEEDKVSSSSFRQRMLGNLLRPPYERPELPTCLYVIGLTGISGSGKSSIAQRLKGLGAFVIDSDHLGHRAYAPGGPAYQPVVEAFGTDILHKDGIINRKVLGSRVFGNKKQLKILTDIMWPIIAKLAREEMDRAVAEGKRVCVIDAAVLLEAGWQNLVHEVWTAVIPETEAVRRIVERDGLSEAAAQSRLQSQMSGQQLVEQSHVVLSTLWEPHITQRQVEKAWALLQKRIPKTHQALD
UniProt Q92905, sequence (Q92905 whole entry, looked up): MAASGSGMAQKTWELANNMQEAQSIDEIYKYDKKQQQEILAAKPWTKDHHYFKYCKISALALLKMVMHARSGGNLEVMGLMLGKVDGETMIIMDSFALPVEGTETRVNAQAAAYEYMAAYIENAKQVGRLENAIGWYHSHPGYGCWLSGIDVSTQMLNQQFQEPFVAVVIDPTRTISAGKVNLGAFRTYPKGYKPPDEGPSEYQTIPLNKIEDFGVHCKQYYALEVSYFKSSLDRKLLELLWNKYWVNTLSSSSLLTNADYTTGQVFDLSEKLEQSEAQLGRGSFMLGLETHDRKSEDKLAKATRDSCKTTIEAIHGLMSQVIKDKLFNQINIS
UniProt Q15370, sequence (Q15370 whole entry): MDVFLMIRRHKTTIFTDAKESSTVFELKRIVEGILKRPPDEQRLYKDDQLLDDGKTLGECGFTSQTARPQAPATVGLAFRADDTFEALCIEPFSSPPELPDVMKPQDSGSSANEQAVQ
UniProt O60921, sequence (O60921 whole entry): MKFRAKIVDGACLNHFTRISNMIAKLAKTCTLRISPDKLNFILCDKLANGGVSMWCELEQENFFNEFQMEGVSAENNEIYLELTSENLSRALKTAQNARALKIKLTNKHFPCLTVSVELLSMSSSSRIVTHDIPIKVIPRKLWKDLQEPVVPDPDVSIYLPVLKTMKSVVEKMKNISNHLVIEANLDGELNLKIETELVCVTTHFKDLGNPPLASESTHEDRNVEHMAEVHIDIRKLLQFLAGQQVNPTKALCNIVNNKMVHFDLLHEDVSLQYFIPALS
UniProt A6NKF1, sequence (A6NKF1 whole entry): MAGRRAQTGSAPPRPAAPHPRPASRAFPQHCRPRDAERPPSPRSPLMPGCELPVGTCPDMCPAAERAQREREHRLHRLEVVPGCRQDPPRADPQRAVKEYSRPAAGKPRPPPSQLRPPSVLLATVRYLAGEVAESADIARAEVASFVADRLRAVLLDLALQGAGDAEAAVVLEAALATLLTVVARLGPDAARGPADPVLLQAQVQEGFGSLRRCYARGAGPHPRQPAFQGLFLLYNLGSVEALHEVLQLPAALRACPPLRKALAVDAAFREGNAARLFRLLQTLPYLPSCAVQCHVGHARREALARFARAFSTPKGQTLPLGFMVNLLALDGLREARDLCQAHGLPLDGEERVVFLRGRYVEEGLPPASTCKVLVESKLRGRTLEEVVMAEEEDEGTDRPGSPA
UniProt Q9Y2X7, sequence (Q9Y2X7 whole entry): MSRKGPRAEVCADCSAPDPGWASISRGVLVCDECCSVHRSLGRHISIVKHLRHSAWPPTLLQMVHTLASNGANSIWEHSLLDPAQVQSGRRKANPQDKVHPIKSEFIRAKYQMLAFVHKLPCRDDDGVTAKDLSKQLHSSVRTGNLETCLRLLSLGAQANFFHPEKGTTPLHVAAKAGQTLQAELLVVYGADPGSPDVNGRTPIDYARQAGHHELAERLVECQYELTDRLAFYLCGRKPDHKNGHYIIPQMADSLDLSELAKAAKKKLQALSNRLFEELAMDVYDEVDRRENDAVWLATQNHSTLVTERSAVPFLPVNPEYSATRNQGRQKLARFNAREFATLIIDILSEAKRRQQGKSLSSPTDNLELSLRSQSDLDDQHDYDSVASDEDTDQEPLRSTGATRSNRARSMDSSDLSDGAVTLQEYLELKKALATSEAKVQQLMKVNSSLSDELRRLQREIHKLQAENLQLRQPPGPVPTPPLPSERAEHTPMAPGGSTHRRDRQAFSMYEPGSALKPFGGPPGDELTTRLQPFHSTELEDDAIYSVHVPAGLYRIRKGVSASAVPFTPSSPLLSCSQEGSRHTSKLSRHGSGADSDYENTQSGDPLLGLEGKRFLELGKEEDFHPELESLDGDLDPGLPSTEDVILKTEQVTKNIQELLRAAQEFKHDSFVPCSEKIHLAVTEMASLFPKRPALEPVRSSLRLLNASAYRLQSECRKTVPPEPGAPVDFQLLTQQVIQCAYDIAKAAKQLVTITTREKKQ
UniProt P35222, sequence (P35222 whole entry): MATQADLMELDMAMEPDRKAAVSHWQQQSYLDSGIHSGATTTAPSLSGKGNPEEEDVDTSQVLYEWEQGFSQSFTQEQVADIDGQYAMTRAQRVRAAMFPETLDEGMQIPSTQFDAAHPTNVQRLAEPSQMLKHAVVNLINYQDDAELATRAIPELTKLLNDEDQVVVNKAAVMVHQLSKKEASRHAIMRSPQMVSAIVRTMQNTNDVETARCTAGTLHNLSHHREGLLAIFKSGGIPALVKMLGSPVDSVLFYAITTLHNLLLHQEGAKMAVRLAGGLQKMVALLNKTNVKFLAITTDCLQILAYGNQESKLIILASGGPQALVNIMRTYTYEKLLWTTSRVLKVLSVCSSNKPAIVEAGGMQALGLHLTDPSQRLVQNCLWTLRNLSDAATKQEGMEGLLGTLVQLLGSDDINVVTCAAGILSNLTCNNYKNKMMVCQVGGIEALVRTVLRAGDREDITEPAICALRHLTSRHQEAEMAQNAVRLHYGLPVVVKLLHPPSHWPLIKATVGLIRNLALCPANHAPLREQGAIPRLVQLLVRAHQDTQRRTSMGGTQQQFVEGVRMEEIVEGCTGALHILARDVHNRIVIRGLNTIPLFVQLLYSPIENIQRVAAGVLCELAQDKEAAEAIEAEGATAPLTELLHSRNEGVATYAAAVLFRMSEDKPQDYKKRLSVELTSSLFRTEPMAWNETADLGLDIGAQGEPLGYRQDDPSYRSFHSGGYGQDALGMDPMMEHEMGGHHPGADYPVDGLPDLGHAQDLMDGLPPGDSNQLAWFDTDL

As for SAC3D1 (UniProt A6NKF1), the thermal stability z-score was -1.27 with potassium arsenate, -1.55 in the experiment with lipoamide (setting [1]) and -1.63 in the experiment with lipoamide (arsenate co-treatment: none).
On the same counts, the results for PEX6 (UniProt Q13608) are 0.938, 0.132 and 0.339.
In the case of TUBGCP4 (UniProt Q9UGJ1), the thermal stability z-score is 0.141 in the experiment with potassium arsenate, -0.259 in the experiment with lipoamide (setting [1]) and -0.815 in the experiment with lipoamide (arsenate co-treatment: none).
On the same counts, the results for NOP56 (UniProt O00567) are 0.516, 0.756 and -0.0331.
For CLYBL (UniProt Q8N0X4), in that order: 0.695, 0.208 and 0.433.
Take BDH2 (UniProt Q9BUT1): the values for the thermal stability z-score in the experiment with potassium arsenate, in the experiment with lipoamide (setting [1]) and in the experiment with lipoamide (arsenate co-treatment: none) were -0.414, -0.0305 and -0.246, respectively.
For PRPSAP2 (UniProt O60256), in that order: -0.637, -0.04 and -0.392.
As for MBTPS1 (UniProt Q14703), the thermal stability z-score in the experiment with potassium arsenate is -0.822; in the experiment with lipoamide (setting [1]), -0.923; in the experiment with lipoamide (arsenate co-treatment: none), -0.876.
Take WDR92 (UniProt Q96MX6): the thermal stability z-score was 0.368 with potassium arsenate, -0.0904 with lipoamide (setting [1]) and -0.202 with lipoamide (arsenate co-treatment: none).
For COPS4 (UniProt Q9BT78), in that order: -0.453, 0.298 and -0.0548.
Regarding CTNNB1 (UniProt P35222), the thermal stability z-score is 0.308 in the experiment with potassium arsenate, 0.545 with lipoamide (setting [1]) and 0.798 in the experiment with lipoamide (arsenate co-treatment: none).
With GIT1 (UniProt Q9Y2X7), the thermal stability z-score in the experiment with potassium arsenate was -0.368; in the experiment with lipoamide (setting [1]), 0.346; in the experiment with lipoamide (arsenate co-treatment: none), -0.311.
For TCEB2 (UniProt Q15370), in that order: 0.154, 0.764 and 0.455.
As for PPME1 (UniProt Q9Y570), the values for the thermal stability z-score with potassium arsenate, with lipoamide (setting [1]) and with lipoamide (arsenate co-treatment: none) were -1.09, 0.126 and 0.00998, respectively.
For COPS5 (UniProt Q92905), in that order: 0.276, 0.384 and -0.0535.
For RBM8A (UniProt Q9Y5S9), in that order: 0.0981, -0.156 and 0.28.
Take TATDN1 (UniProt Q6P1N9): the thermal stability z-score with potassium arsenate turned out to be 0.169; with lipoamide (setting [1]), 0.263; with lipoamide (arsenate co-treatment: none), 0.514.
On the same counts, the results for TSTD2 (UniProt Q5T7W7) are -0.0518, -0.0897 and -0.178.
For the target HUS1 (UniProt O60921), the thermal stability z-score in the experiment with potassium arsenate is -0.902; with lipoamide (setting [1]), -0.436; in the experiment with lipoamide (arsenate co-treatment: none), -0.56.
On to UCKL1 (UniProt Q9NWZ5), for which the thermal stability z-score with potassium arsenate was 0.0426; with lipoamide (setting [1]) it was -0.158; in the experiment with lipoamide (arsenate co-treatment: none), -0.483.
On the same counts, the results for CPNE8 (UniProt Q86YQ8) are -0.648, 0.773 and 1.11.
For UEVLD (UniProt Q8IX04), in that order: 0.0354, 0.183 and 0.107.
As for LRRC40 (UniProt Q9H9A6), the thermal stability z-score was 0.245 in the experiment with potassium arsenate, -0.119 in the experiment with lipoamide (setting [1]) and 0.108 with lipoamide (arsenate co-treatment: none).
On the same counts, the results for CYR61 (UniProt O00622) are -4.51, -1.72 and -1.47.
In the case of COASY (UniProt Q13057), the thermal stability z-score was 0.944 with potassium arsenate, -0.525 with lipoamide (setting [1]) and -0.09 with lipoamide (arsenate co-treatment: none).
For KIAA0196 (UniProt Q12768), in that order: 0.0921, -0.101 and 0.0446.
For TACC2 (UniProt O95359), in that order: 0.409, 0.243 and 0.134.

The values above are taken from the supplement of paper PMC12463676, “Small-molecule dissolution of stress granules by redox modulation benefits ALS models” (Nature Chemical Biology, 2025).
